Our source for the IC50 and Ki values is ChEMBL document CHEMBL1909046, “DrugMatrix in vitro pharmacology data”.

SMILES strings stand for the structures.

For data set [1], the target named is T1, Progesterone receptor (Bos taurus, UniProt Q690N0).
T1 sequence (Q690N0 whole entry): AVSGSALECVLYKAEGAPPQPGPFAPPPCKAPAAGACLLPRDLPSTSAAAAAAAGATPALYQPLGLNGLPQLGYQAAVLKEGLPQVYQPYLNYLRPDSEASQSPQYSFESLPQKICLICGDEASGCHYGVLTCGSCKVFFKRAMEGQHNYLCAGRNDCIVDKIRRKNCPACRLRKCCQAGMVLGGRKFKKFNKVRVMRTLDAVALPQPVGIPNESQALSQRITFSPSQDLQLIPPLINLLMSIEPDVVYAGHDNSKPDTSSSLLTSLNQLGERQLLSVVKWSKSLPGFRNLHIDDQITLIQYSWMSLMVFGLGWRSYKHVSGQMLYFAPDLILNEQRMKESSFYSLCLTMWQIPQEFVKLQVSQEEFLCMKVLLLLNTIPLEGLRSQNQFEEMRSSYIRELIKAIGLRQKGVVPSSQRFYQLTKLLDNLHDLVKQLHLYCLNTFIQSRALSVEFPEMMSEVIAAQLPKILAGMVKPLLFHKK
Description: DRUGMATRIX: Progesterone radioligand binding (ligand: [3H] R-5020). The format is tissue-based, Uterus. To be noted: Not Active = under 50% inhibition at 10 µM.

The nature of data set [2]: DRUGMATRIX: ATPase, Na+/K+ enzyme inhibition (substrate: ATP). The format is tissue-based, Sus scrofa, Heart. As to conditions: Not Active = under 50% inhibition at 10 µM.
The target of data set [3] is Vascular endothelial growth factor receptor 1 (Homo sapiens, UniProt P17948). The format is cell-based. As to conditions: huvec. Also: in other assays of this panel Not Active means under 50% inhibition at 10 µM.
In data set [4] the target is Cytochrome P450 2E1 (Homo sapiens, UniProt P05181). As to conditions: bti-tn-5b1-4. Also: in other assays of this panel Not Active means under 50% inhibition at 10 µM.
Data set [5] addresses Prostaglandin G/H synthase 1 (Homo sapiens, UniProt P23219). Description: biochemical. The format is tissue-based, Platelet. To be noted: platelet.
Data set [6] has as its target D(3) dopamine receptor (Homo sapiens, UniProt P35462). Description: DRUGMATRIX: Dopamine D3 radioligand binding (ligand: [3H] Spiperone). The format is cell membranes, CHO, Membrane.

D(3) dopamine receptor, sequence (P35462 whole entry): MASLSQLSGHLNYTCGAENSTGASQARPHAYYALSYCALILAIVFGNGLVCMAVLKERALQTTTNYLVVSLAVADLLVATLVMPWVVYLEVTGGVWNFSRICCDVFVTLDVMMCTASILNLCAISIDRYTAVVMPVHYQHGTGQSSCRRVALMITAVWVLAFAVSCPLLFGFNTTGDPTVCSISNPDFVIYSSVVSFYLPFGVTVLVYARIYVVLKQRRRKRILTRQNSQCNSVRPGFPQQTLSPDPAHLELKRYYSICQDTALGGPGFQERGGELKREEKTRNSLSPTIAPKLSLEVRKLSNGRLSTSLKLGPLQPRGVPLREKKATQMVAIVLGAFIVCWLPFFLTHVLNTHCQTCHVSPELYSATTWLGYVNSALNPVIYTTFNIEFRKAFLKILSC
Prostaglandin G/H synthase 1, sequence (P23219 whole entry): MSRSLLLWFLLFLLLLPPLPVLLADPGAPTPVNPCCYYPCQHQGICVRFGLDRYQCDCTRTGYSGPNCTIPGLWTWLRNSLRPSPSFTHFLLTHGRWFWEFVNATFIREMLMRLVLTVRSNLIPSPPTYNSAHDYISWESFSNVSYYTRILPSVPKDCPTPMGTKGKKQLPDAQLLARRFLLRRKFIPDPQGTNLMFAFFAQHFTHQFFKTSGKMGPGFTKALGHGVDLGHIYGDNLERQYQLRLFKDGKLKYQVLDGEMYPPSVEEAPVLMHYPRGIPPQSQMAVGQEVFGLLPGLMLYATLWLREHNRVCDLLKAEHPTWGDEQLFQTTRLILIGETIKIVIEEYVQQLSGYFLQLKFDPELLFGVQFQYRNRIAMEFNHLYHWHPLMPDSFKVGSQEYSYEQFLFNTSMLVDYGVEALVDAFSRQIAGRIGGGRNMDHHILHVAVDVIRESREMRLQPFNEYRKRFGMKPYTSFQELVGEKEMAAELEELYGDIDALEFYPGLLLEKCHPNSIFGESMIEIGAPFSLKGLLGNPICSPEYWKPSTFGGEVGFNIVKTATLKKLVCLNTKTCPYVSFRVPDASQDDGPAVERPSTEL
Cytochrome P450 2E1, sequence (P05181 whole entry): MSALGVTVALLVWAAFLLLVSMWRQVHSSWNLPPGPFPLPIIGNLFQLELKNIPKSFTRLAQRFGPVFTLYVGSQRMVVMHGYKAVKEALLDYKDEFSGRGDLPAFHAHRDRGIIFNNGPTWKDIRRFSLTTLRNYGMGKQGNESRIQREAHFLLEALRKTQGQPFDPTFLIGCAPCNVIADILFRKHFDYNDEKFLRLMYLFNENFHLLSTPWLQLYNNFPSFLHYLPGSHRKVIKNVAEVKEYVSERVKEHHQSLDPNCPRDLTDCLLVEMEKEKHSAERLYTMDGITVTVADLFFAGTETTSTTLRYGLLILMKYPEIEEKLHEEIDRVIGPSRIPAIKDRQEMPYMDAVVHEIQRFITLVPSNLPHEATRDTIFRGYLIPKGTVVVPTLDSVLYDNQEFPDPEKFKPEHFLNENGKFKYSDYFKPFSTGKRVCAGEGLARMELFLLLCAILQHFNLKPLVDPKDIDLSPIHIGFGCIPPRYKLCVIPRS
Vascular endothelial growth factor receptor 1, sequence (P17948 whole entry): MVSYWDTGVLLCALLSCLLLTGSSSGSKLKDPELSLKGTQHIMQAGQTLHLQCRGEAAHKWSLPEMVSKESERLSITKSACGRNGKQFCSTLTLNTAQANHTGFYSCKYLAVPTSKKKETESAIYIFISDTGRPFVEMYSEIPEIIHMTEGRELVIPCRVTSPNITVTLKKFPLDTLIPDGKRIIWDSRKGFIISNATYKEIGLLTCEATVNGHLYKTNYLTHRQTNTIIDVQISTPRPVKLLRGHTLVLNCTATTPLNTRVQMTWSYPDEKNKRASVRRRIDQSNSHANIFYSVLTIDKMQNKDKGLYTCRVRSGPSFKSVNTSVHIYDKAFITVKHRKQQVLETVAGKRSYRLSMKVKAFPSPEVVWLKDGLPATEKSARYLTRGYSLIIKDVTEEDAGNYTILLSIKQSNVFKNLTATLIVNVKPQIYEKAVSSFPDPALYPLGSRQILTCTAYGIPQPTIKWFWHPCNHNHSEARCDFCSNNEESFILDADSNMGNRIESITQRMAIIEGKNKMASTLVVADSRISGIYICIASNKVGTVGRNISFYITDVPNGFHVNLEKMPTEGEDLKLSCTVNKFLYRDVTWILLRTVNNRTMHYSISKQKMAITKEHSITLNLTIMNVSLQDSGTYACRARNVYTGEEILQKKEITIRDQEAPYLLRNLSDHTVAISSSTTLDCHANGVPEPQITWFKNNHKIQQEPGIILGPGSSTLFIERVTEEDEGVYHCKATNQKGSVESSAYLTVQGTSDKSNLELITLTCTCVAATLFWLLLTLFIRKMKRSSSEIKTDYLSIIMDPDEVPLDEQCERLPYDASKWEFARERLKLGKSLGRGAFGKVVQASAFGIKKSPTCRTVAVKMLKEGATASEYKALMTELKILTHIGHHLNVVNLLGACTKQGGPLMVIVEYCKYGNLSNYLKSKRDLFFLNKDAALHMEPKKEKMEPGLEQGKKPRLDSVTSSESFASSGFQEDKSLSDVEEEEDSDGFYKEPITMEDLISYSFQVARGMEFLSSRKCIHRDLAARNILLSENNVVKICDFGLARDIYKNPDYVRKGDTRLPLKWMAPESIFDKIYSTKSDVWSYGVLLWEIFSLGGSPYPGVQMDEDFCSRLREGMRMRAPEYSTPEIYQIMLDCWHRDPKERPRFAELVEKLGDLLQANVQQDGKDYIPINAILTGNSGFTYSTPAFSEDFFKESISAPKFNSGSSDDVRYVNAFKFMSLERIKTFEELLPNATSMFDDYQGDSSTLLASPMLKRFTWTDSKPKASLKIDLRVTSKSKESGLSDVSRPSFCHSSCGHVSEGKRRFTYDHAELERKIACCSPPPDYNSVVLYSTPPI

Regarding `CO[C@@H]1[C@@H](OC)[C@H](C)[C@@](O)(CC(=O)O)O[C@H]1[C@H](C)[C@H]1O[C@@]2(CC[C@@](C)([C@H]3CC[C@@](C)([C@@H]4O[C@@H]([C@H]5O[C@](C)(O)[C@H](C)C[C@@H]5C)C[C@@H]4O[C@@H]4C[C@H](OC)[C@@H](OC)[C@H](C)O4)O3)O2)C[C@H](O)[C@H]1C.N` [MADURAMICIN], the IC50 result in data set [1], in data set [2], in data set [3], in data set [4], in data set [5] and in data set [6] (cho) was “Not Active” in each case. Moreover, the Ki entry in data set [2] and in data set [4] was “Not Active” in each case.
Take `CC(N)C12CC3CC(CC(C3)C1)C2` (stereo not given) [RIMANTADINE]: the IC50 result in data set [1], in data set [2], in data set [3], in data set [4], in data set [5] and in data set [6] (cho) was “Not Active” each time. Besides, the Ki entry in data set [2] and in data set [4] was “Not Active” each time.
Consider `CCN(CC)C(=S)SSC(=S)N(CC)CC`, for which the IC50 result in data set [1] was “Not Active”; in data set [2], “Not Active”; in data set [3], “Not Active”; in data set [4], “Not Active”; in data set [5] it was “Not Active”; in data set [6] (read-out: IC50) it was 1080 nM. Also, the Ki entry in data set [2] was “Not Active”; in data set [4] it was “Not Active”; in data set [6] (read-out: Ki) it was 368 nM.

As a reminder, the IC50 is the point on the concentration scale where inhibition reaches its midpoint. By Ki is commonly meant a dissociation constant, usually derived from enzyme kinetics or from competition with a known ligand.
